Patent US9232796B2, “Herbicidal compositions comprising 4-amino-3-chloro-5-fluoro-6-(4-chloro-2-fluoro-3-methoxyphenyl) pyridine-2-carboxylic acid or a derivative thereof and acetyl-CoA carboxylase (ACCase) inhibitors” (DOW AGROSCIENCES LLC, priority 2012, dated 2016)

Columns and labels:
[1] = tested on: CYPIR; experiment: Example V post-emergence field trials in direct-seeded rice; type: in vivo, Cyperus iria; conditions: foliar, field trial Tolima, Colombia
Protocol: Multiple field trials were conducted under commercial grower field conditions in Tolima, Colombia; Thessaloniki, Greece; Bianze and Copiano, Italy; and Humphrey, Ark., USA. Trials sites were located in commercially grown fields of direct-seeded rice (Oryza sativa) using standard herbicide small plot research methodology. Plots varied from 2 to 3 meter (m)×5 to 8 m (width×length) with 4 replicates per treatment. The rice crop was grown using normal cultural practices for fertilization, seeding, watering, flooding and maintenance to ensure good growth of the crop and the weeds.
All treatments in the field trials were applied using a backpack compressed air/gas sprayer with flat fan nozzles (80° or 110°) calibrated to apply 187 to 300 L/ha spray volume at approximately 200-400 kPa nozzle pressure. Commercially available products of cyhalofop-butyl (Clincher 180EC, Clincher 200EC, and Clincher SF (285 gr ai/L EC)) were mixed in water at appropriate formulated product rates to achieve the desired rates based on a unit area of application (hectare) to achieve the desired rates as shown. Treatments were rate at 19 to 58 days after application (DAA) as compared to the untreated control plants. Visual weed control was scored on a scale of 0 to 100 percent where 0 corresponds to no injury and 100 corresponds to complete kill. […]

[2] = tested on: SCPJU; experiment: Example V (second) postemergence foliar-applied ternary mixtures, greenhouse, direct seeded rice weeds; type: in vivo, Schoenoplectus juncoides (Roxb.) Palla
Source text: Seeds or nutlets of the desired test plant species were planted in a soil matrix prepared by mixing a sandy loam or loam soil (e.g., 32 percent silt, 23 percent clay, and 45 percent sand, with a pH of about 6.5 and an organic matter content of about 1.9 percent) and calcareous grit in an 80 to 20 ratio. The soil matrix was contained in plastic pots with a volume of 1 quart and a surface area of 83.6 square centimeters (cm^2). When required to ensure good germination and healthy plants, a fungicide treatment and/or other chemical or physical treatment was applied. The plants were grown for 8-22 days in a greenhouse with an approximate 14 hr. photoperiod which was maintained at about 29° C. during the day and 26° C. during the night. Nutrients (Peters Excel® 15-5-15 5-Ca 2-Mg and iron chelate) were applied in the irrigation solution as needed and water was added on a regular basis. Supplemental lighting was provided with overhead metal halide 1000-Watt lamps as necessary. The plants were employed for testing when they reached the first through fourth true leaf stage.
Treatments consisted of the benzyl ester of 4-amino-3-chloro-5-fluoro-6-(4-chloro-2-fluoro-3-methoxy-phenyl)pyridine-2-carboxylic acid (Compound A), formulated as an SC (suspension concentrate), an ACCase inhibitor, and a third herbicidal component, each applied alone and in ternary combination. Forms of compound A were applied on an acid equivalent basis.
The ACCase inhibitor component was applied on an active ingredient basis and included cyhalofop-R-butyl formulated as Clincher® SF, fenoxaprop-p-ethyl formulated as RiceStar® HT, and profoxydim formulated as Aura® 20EC. Other herbicidal components were applied on an active ingredient or acid equivalent basis depending on the compound and included penoxsulam formulated as Grasp® SC, bentazon sodium formulated as Basagran®, triclopyr […] (TEA) salt formulated as Grandstand® R, bispyribac sodium formulated as Regiment® 80WP, imazamox ammonium formulated as Beyond®, benzobicyclon, quinclorac formulated as Facet® 75DF, glyphosate dimethylammonium (DMA) salt formulated as Durango® DMA, glufosinate ammonium formulated as Ignite® 280, fentrazamide formulated as an emulsifiable concentrate (EC), propyrisulfuron formulated as Zeta One®, and indanofan (technical grade material).
Treatment requirements were calculated based upon the rates being tested, the concentration of active ingredient or acid equivalent in the formulation, and a 12 mL application volume at a rate of 187 L/ha.
For treatments comprised of formulated compounds, measured amounts of compounds were placed individually in 25 mL glass vials and diluted in a volume of 1.25% (v/v) Agri-Dex® crop oil concentrate to obtain 12× stock solutions. […]

[3] = tested on: SCPMA; experiment: Example VI in-water applied ternary mixtures, greenhouse, transplanted paddy rice weeds; type: in vivo, Schoenoplectus maritimus (L.) Lye
Protocol: Applications were made by injecting with a pipetter appropriate amounts of the application solutions, into the aqueous layer of the paddy. Control plants were treated in the same manner with the solvent blank. Applications were made so that all treated plant material received the same concentrations of acetone and crop oil concentrate.
The treated plants and control plants were placed in a greenhouse as described above and water was added as needed to maintain a paddy flood. After approximately 3 weeks the condition of the test plants as compared with that of the untreated plants was determined visually and scored on a scale of 0 to 100 percent where 0 corresponds to no injury or growth inhibition and 100 corresponds to complete kill.
Colby's equation was used to determine the herbicidal effects expected from the mixtures (Colby, S. R. 1967. Calculation of the synergistic and antagonistic response of herbicide combinations. Weeds 15:20-22.).
The following equation was used to calculate the expected activity of mixtures containing three active ingredients, A. B, and C: Expected=A+B+C−((A×B+A×C+B×C)/100)+(A×B×C/10000)

COc1c(Cl)ccc(-c2nc(C(=O)OCc3ccccc3)c(Cl)c(N)c2F)c1F [Compound A Benzyl Ester, benzyl ester of 4-amino-3-chloro-5-fluoro-6-(4-chloro-2-fluoro-3-methoxy-phenyl)pyridine-2-carboxylic acid]
Visual Weed Control (%) - 19 DAA CYPIR Obs ([1]; 12 gae/ha): 69% | Visual Weed Control (%) - 21 DAA SCPJU Obs ([2]; 2.19 gae/ha): 65% | Visual Weed Control (%) - 21 DAA SCPJU Obs ([2]; 4.38 gae/ha): 96% | Visual Weed Control (%) - 24 DAA SCPMA Obs ([3]; 4 gae/ha): 0% | Visual Weed Control (%) - 24 DAA SCPMA Obs ([3]; 8 gae/ha): 0% | Visual Weed Control (%) - 24 DAA SCPMA Obs ([3]; 16 gae/ha): 0%

CCCCOC(=O)[C@@H](C)Oc1ccc(Oc2ccc(C#N)cc2F)cc1 [Cyhalofop-butyl, butyl(2R)-2-[4-(4-cyano-2-fluorophenoxy)phenoxy]propanoate, reference compound]
Visual Weed Control (%) - 19 DAA CYPIR Obs ([1]; 280 gai/ha): 0% | Visual Weed Control (%) - 21 DAA SCPJU Obs ([2]; 35 gai/ha): 0% | Visual Weed Control (%) - 24 DAA SCPMA Obs ([3]; 180 gai/ha): 0%
